From the NIST ThermoML archive (doi:10.1016/j.fluid.2006.06.006)
Values joined by “and” are separate entries in the source; they are usually repeats but may differ in a detail not shown here. Equal values may be shown once.

Assay: excess molar enthalpy (molar enthalpy of mixing); xn = mol fraction of the nth substance listed
Conditions: 323.1 K, Liquid

O=C=O [carbon dioxide] + O
Conditions	excess molar enthalpy
2060 kPa, x1 = 0.0032	-0.0113 kcal/mol
2060 kPa, x1 = 0.0037	-0.0131 kcal/mol
2060 kPa, x1 = 0.004	-0.0138 kcal/mol
2060 kPa, x1 = 0.0042	-0.0152 kcal/mol
2060 kPa, x1 = 0.0048	-0.0168 kcal/mol
2060 kPa, x1 = 0.0058	-0.0199 kcal/mol
2060 kPa, x1 = 0.006	-0.022 kcal/mol
2060 kPa, x1 = 0.0064	-0.0216 kcal/mol
2060 kPa, x1 = 0.0079	-0.0221 kcal/mol and -0.0222 kcal/mol
2060 kPa, x1 = 0.0106	-0.0228 kcal/mol
2060 kPa, x1 = 0.0126	-0.0224 kcal/mol
2060 kPa, x1 = 0.0158	-0.0228 kcal/mol
2060 kPa, x1 = 0.021	-0.0223 kcal/mol
2060 kPa, x1 = 0.0311	-0.0225 kcal/mol
5100 kPa, x1 = 0.0052	-0.0162 kcal/mol
5100 kPa, x1 = 0.0064	-0.02 kcal/mol
5100 kPa, x1 = 0.0084	-0.0261 kcal/mol
5100 kPa, x1 = 0.0092	-0.029 kcal/mol
5100 kPa, x1 = 0.0101	-0.0323 kcal/mol
5100 kPa, x1 = 0.0105	-0.0331 kcal/mol
5100 kPa, x1 = 0.011	-0.0344 kcal/mol
5100 kPa, x1 = 0.012	-0.0373 kcal/mol
5100 kPa, x1 = 0.0125	-0.0394 kcal/mol
5100 kPa, x1 = 0.0136	-0.0412 kcal/mol
5100 kPa, x1 = 0.0138	-0.0417 kcal/mol
5100 kPa, x1 = 0.0147	-0.0429 kcal/mol
5100 kPa, x1 = 0.0151	-0.0441 kcal/mol
5100 kPa, x1 = 0.0155	-0.0438 kcal/mol
5100 kPa, x1 = 0.0156	-0.0448 kcal/mol
5100 kPa, x1 = 0.0172	-0.0438 kcal/mol
5100 kPa, x1 = 0.0181	-0.0441 kcal/mol
5100 kPa, x1 = 0.019	-0.0454 kcal/mol
5100 kPa, x1 = 0.0201	-0.0438 kcal/mol
5100 kPa, x1 = 0.0208	-0.0453 kcal/mol
5100 kPa, x1 = 0.0254	-0.0443 kcal/mol
10530 kPa, x1 = 0.01	-0.0178 kcal/mol
10530 kPa, x1 = 0.012	-0.0208 kcal/mol
10530 kPa, x1 = 0.0132	-0.0243 kcal/mol
10530 kPa, x1 = 0.0165	-0.0301 kcal/mol
10530 kPa, x1 = 0.0197	-0.0321 kcal/mol
10530 kPa, x1 = 0.023	-0.0348 kcal/mol
10530 kPa, x1 = 0.0249	-0.0347 kcal/mol
10530 kPa, x1 = 0.026	-0.037 kcal/mol
10530 kPa, x1 = 0.0323	-0.0368 kcal/mol
10530 kPa, x1 = 0.0324	-0.0368 kcal/mol
10530 kPa, x1 = 0.0446	-0.0361 kcal/mol
10530 kPa, x1 = 0.0508	-0.0359 kcal/mol
10530 kPa, x1 = 0.0625	-0.0354 kcal/mol
10530 kPa, x1 = 0.0627	-0.0356 kcal/mol
14200 kPa, x1 = 0.0105	-0.0142 kcal/mol
14200 kPa, x1 = 0.0125	-0.0168 kcal/mol
14200 kPa, x1 = 0.0139	-0.0189 kcal/mol
14200 kPa, x1 = 0.0173	-0.0225 kcal/mol
14200 kPa, x1 = 0.0207	-0.025 kcal/mol
14200 kPa, x1 = 0.0241	-0.0268 kcal/mol
14200 kPa, x1 = 0.0248	-0.027 kcal/mol
14200 kPa, x1 = 0.0261	-0.0277 kcal/mol
14200 kPa, x1 = 0.0274	-0.0279 kcal/mol
14200 kPa, x1 = 0.0287	-0.0288 kcal/mol
14200 kPa, x1 = 0.0307	-0.029 kcal/mol
14200 kPa, x1 = 0.034	-0.0284 kcal/mol
14200 kPa, x1 = 0.047	-0.0283 kcal/mol
14200 kPa, x1 = 0.0658	-0.0279 kcal/mol
20200 kPa, x1 = 0.011	-0.0128 kcal/mol
20200 kPa, x1 = 0.0147	-0.0167 kcal/mol
20200 kPa, x1 = 0.0183	-0.0207 kcal/mol
20200 kPa, x1 = 0.0197	-0.0216 kcal/mol
20200 kPa, x1 = 0.021	-0.0236 kcal/mol
20200 kPa, x1 = 0.0239	-0.0236 kcal/mol
20200 kPa, x1 = 0.0253	-0.0238 kcal/mol
